Data on three substances can be found in article PMC9501810, “Bitter Peptides YFYPEL, [sequence], and [sequence], Released during Gastric Digestion of Casein, Stimulate Mechanisms of Gastric Acid Secretion via Bitter Taste Receptors TAS2R16 and TAS2R38” (Journal of Agricultural and Food Chemistry, 2022).

The test system of data set [1] is HGT-1 cells. Description: Proton secretion assay (intracellular proton index IPX, SNARF-1-AM). It counts as cell-based, human. The following applies: for ΔIPX (change in intracellular proton index vs untreated cells): 10 min incubation in KRHB, mean ± SEM, n = 4–8. The method, then: The measurement of proton secretion from HGT-1 cells represents a well-established model for the identification of bitter compounds. By affecting extraoral bitter taste receptors with bitter compounds, a modulatory effect on proton secretion can be measured. For this purpose, cells were washed with KRHB and incubated with 3 μM of the intracellular pH indicator 1,5 carboxy-seminaphto-rhodafluor acetoxymethyl ester (SNARF-1-AM) under standard conditions. After 30 min, the cells were washed again with KRHB and then incubated with casein (0.01–10 μM equimolar related to the relevant forms αS1- and β-casein), hydrolysate (0.01–10 μM), or the peptides (0.01–200 μM). […] All substances were dissolved and diluted in KRHB. 1 mM histamine was used as a positive control. Measurements were performed using FlexStation 3 (Molecular Devices, USA). The excitation wavelength was 488 nm, and the emission wavelengths were 580 and 640 nm. For calibration (pH range 7.0–8.0), the intracellular and extracellular pH was adjusted with 2 μM nigericin in potassium buffer (20 mM NaCl, 110 mM KCl, 1 mM CaCl2, 1 mM MgSO4, 18 mM D-glucose, and 20 mM HEPES). The intracellular proton index (IPX) was calculated as the log2 value of the 580/640 ratio and compared with cells without treatment. Negative values represent increased secretion of protons and therefore stimulation of mechanisms regulating gastric acid secretion in HGT-1 cells. In contrast, positive values represent an inhibition of secretion compared to the untreated control.

Data set [2] can be described thus: Solubility of casein in the proton secretion assay. It counts as physicochemical. The conditions noted are these: casein in KRHB, concentrations above 10 µM could not be investigated.
Data set [3] has as its system pepsin. Description: In vitro gastric digestion of casein with targeted UHPLC-MS/MS-MRM quantitation of peptides. The conditions noted are these: 37 °C, n = 4; for degradation of the peptide during further in vitro gastric digestion: SGF pH 3 with pepsin, up to 6 h. It counts as in vitro ADME, porcine. The method, then:
The in vitro digestion was based on the Nature protocol established by Brodkorb et al.([30]) For this, simulated salivary fluid (SSF, containing 15.1 mM KCl, 3.7 mM KH2PO4, 13.6 mM NaHCO3, 0.15 mM MgCl2(H2O)6, 0.06 mM (NH4)2CO3, 1.1 mM HCl, and 1.5 mM CaCl2(H2O)2) and simulated gastric fluid (SGF, containing 6.9 mM KCl, 0.9 mM KH2PO4, 25.0 mM NaHCO3, 47.2 mM NaCl, 0.12 mM MgCl2(H2O)6, 0.5 mM (NH4)2CO3, 15.6 mM HCl, and 0.15 mM CaCl2(H2O)2) were prepared. A total amount of 100 mg casein was suspended in 3 mL of SSF and incubated for 5 min at 37 °C in the tube rotator. After taking a sample (500 μL, t = 0 h), 2 mL of SGF was added and the pH was adjusted to 3 with 100 μL of HCl (1 M). After addition of 125 μL of pepsin solution (80,000 U/mL in 10 mM HCl), 275 μL of H2O was added to fill up to 5 mL. This was followed by further incubation at 37 °C in a tube rotator for 6 h. 500 μL of samples was taken at 0.25, 0.5, 0.75, 1, 2, 3, 4, 5, and 6 h, respectively. The samples were frozen in liquid nitrogen and stored at −80 °C until further analysis. For MS experiments, all samples were diluted 1:1 with 10% MeCN.
All targeted proteomics LC–MS/MS measurements were performed using a Sciex ExionLC AC (Sciex, Darmstadt, Germany) coupled to a 6500+ QTrap LC–MS/MS system (Sciex, Darmstadt, Germany) operating in the positive electrospray ionization mode. Data acquisition and instrumentation control were performed with AnalystTF software (v 1.7.1; Sciex, Darmstadt, Germany). Separation was performed using a 100 × 2.1 mm, 1.7 μm, Kinetex C18 column (Phenomenex, Aschaffenburg, Germany) with a guard column of the same type with 0.1% aqueous formic acid and acetonitrile containing 0.1% formic acid at a flow rate of 0.25 mL/min. The gradient was based on the following scheme: 0 min, 15% B; 7 min, 40% B; 7.5 min, 98% B; 10.5 min, 98% B; 10.8 min, 15% B; and 15 min, 15% B. The column oven temperature was set at 40 °C, and the injection volume was 1 μL per sample. For MS/MS measurements, the same parameters were used for all samples (ion spray voltage […], source temperature 450 °C, nebulizing gas 60 psi, and heating gas 30 psi). Nitrogen was set to 35 psi and served as a curtain gas to effectively dissolve the ions. To optimize the parameters DP, CE, and collision cell exit potential for each peptide and transition (Supporting Information Table-SI 2), standard solutions of the five synthesized peptides were injected directly into the MS ion source. Ionization parameters were optimized in positive ESI mode using AnalystTF software (v 1.7.1; Sciex, Darmstadt, Germany). For the preparation of the calibration curves, five peptides were dissolved individually in D2O (600 μL) and the concentration of the stock solutions was determined by qNMR.[35] For each peptide, seven calibration solutions (0.5, 1, 5, 10, 50, 100, and 200 μM) were diluted in 5% MeCN from these stock solutions. The data were analyzed using MultiQuant software (v 3.0.3; Sciex, Darmstadt, Germany).

In data set [4] the test system is Caco-2 cell monolayers. The conditions noted are these: Caco-2; cited from earlier work. The text has this:
In addition, transport through Caco-2 cell monolayers was ...

With casein, the “ΔIPX (change in intracellular proton index vs untreated cells)” value in data set [1] (5 µM, positive = inhibited proton secretion) was “+0.212 ± 0.029”; in data set [1] (10 µM, negative = stimulated, positive = inhibited proton secretion) it was “+0.441 ± 0.037”. The “change in mean IPX” value in data set [1] (casein concentrations below 5 µM (0.01–<5 µM, equimolar related to αS1- and β-casein)) is reported as “No significant change”. For the same substance, the solubility result in data set [2] is “poor solubility”.

Consider PVVVPPFLQPEVM, for which the “concentrations at which a significant ΔIPX was found” value in data set [1] (tested 0.01–200 µM, 10 min) was “at 1 and 10 μM only”. For the same substance, the “highest concentration released during in vitro digestion” value in data set [3] (100 mg casein, SSF then SGF pH 3 with pepsin, 0–6 h, mean) is on record as “up to 148.7 μM”. Further, the “degradation of the peptide during further in vitro gastric digestion” value in data set [3] is listed as “not further degraded”. The “transport through Caco-2 cell monolayers” value in data set [4] is on record as “transport through Caco-2 cell monolayers was observed”.

As for “YYVPLGTQ [bitter casein peptide αS1-CN165–172]”, in data set [1] (0.1 µM, IPX = log2 of 580/640 ratio, negative = stimulated proton secretion), the “ΔIPX (change in intracellular proton index vs untreated cells)” value is given as −0.166 ± 0.017. In data set [3], the “degradation of the peptide during further in vitro gastric digestion” value is on record as “no noticeable degradation”.
